Laboratory results taken from EPA's ToxRefDB 2.

Columns and labels:
dog [1] = conditions: Subchronic oral toxicity in nonrodent, beagle, Feed, dose end: 103 day, group: systemic
rabbit = conditions: Prenatal developmental toxicity study, new zealand white, Oral, Gavage/Intubation, dose end: 28 GD
rat [2] = conditions: Subchronic oral toxicity in rodents, sprague dawley, Feed, dose end: 90 day, group: systemic, systemic / clinical chemistry / cholesterol / cholesterol + systemic / in life observation / body weight / body weight + systemic / in life …
rat [3] = conditions: Multigenerational reproductive toxicity study, sprague dawley, Oral, Feed, dose end: 2 generation
rat [4] = conditions: Prenatal developmental toxicity study, sprague dawley, Oral, Gavage/Intubation, dose end: 15 GD
rat [5] = conditions: Combined chronic toxicity/carcinogenicity, sprague dawley, Oral, Feed, dose end: 104 week, group: systemic
dog [6] = conditions: Chronic toxicity, beagle, Oral, Capsule, dose end: 52 week, group: systemic
dog [7] = conditions: Subchronic oral toxicity in nonrodent, beagle, Capsule, dose end: 90 day, group: systemic
mouse = conditions: Carcinogenicity, cd1, Oral, Feed, dose end: 78 week, group: systemic
rat [8] = conditions: Prenatal developmental toxicity study, other, Oral, Gavage/Intubation, dose end: 15 GD
rat [9] = conditions: Multigenerational reproductive toxicity study, sprague dawley, Oral, Feed, dose end: 2 generation; remark: listed apart in the source
rat [10] = conditions: Subchronic oral toxicity in rodents, sprague dawley, Feed, dose end: 3 month, group: systemic
[11] = systemic / clinical chemistry / albumin / albumin + systemic / clinical chemistry / calcium / calcium + systemic / clinical chemistry / …
[12] = group: developmental, developmental / offspring survival late / lactation index / lactation index + developmental / offspring survival late / viability index / …
[13] = group: maternal, reproductive / offspring survival early / dead fetuses / dead fetuses
[14] = group: offspring, developmental / offspring survival late / viability index / viability index + systemic / in life observation / body weight / offspring (pup…
[15] = group: parental, systemic / in life observation / body weight / body weight gain + systemic / organ weight / liver / relative to body weight
[16] = group: developmental, developmental / developmental malformation / bone / enlarged fontanel + developmental / developmental malformation / bone / incomplete …
[17] = group: maternal, systemic / in life observation / body weight / body weight gain
[18] = group: maternal, systemic / in life observation / body weight / body weight gain + systemic / in life observation / body weight / body weight + systemic / in…
[19] = systemic / in life observation / body weight / body weight gain + systemic / pathology microscopic / liver / hypertrophy + systemic / …
[20] = systemic / organ weight / liver / absolute + systemic / organ weight / liver / relative to body weight + systemic / clinical chemistry / …
[21] = systemic / clinical chemistry / alkaline phosphatase (alp/alk) / alkaline phosphatase (alp/alk) + systemic / clinical chemistry / calcium / …
[22] = systemic / clinical chemistry / alkaline phosphatase (alp/alk) / alkaline phosphatase (alp/alk) + systemic / organ weight / liver / absolute…
[23] = group: developmental, developmental / developmental malformation / bone / full supernumerary
[24] = group: offspring, systemic / in life observation / body weight / offspring (pup) weight
[25] = group: parental, systemic / in life observation / body weight / body weight + systemic / in life observation / food consumption / food consumption + systemic…
[26] = systemic / clinical chemistry / cholesterol / cholesterol + systemic / clinical chemistry / lipids / phospholipids + systemic / hematology…
[27] = systemic / hematology / platelet / platelet + systemic / clinical chemistry / triglycerides / triglycerides + systemic / clinical chemistry…

Which results are given for CCNS(=O)(=O)C(F)(F)C(F)(F)C(F)(F)C(F)(F)C(F)(F)C(F)(F)C(F)(F)C(F)(F)F [Sulfluramid]?
LOAEL (dog [1]; [11]): > 23.2 mg/kg/day; NOAEL (dog [1]; [11]): ≥ 23.2 mg/kg/day; LEL (dog [1]; systemic / organ weight / liver / relative to body weight + systemic / clinical chemistry / calcium / calcium): 2.52 mg/kg/day; LEL (rabbit; [12]): 0.3 mg/kg/day; LOAEL (rabbit; [12]): 0.3 mg/kg/day; NEL (rabbit; [12]): < 0.3 mg/kg/day; NOAEL (rabbit; [12]): < 0.3 mg/kg/day; LEL (rabbit; [13]): 0.3 mg/kg/day; LOAEL (rabbit; [13]): 0.3 mg/kg/day; NEL (rabbit; [13]): < 0.3 mg/kg/day; NOAEL (rabbit; [13]): < 0.3 mg/kg/day; LEL (rat [2]): 2.5 mg/kg/day; LOAEL (rat [2]): 2.5 mg/kg/day; NEL (rat [2]): 0.5 mg/kg/day; NOAEL (rat [2]): 0.5 mg/kg/day; LEL (rat [3]; [14]): 1.34 mg/kg/day; LOAEL (rat [3]; [14]): 1.34 mg/kg/day; NEL (rat [3]; [14]): 0.45 mg/kg/day; NOAEL (rat [3]; [14]): 0.45 mg/kg/day; LEL (rat [3]; [15]): 1.34 mg/kg/day; LOAEL (rat [3]; [15]): 1.34 mg/kg/day; NEL (rat [3]; [15]): 0.45 mg/kg/day; NOAEL (rat [3]; [15]): 0.45 mg/kg/day; LEL (rat [4]; [16]): 13.3 mg/kg/day; LOAEL (rat [4]; [16]): 13.3 mg/kg/day; NEL (rat [4]; [16]): 3.3 mg/kg/day; NOAEL (rat [4]; [16]): 3.3 mg/kg/day; LEL (rat [4]; [17]): 3.3 mg/kg/day; LOAEL (rat [4]; [17]): 3.3 mg/kg/day; NEL (rat [4]; [18]): 0.8 mg/kg/day; NOAEL (rat [4]; [18]): 0.8 mg/kg/day

For CC(C)(C)[C@H](O)/C(=C\c1ccc(Cl)cc1)n1cncn1 [Uniconazole-P], which LOAEL (rat [5]; [19]) is on record?
The LOAEL was 39.4 mg/kg/day.

And the NOAEL (rat [5]; [19])?
The NOAEL was 7.78 mg/kg/day.

What about the LEL (rat [5]; systemic / pathology microscopic / liver / hypertrophy + systemic / pathology microscopic / liver / vacuolization) of the same compound?
Its LEL is 7.78 mg/kg/day.

And the NEL (rat [5]; systemic / pathology microscopic / liver / hypertrophy + systemic / pathology microscopic / liver / vacuolization + systemic / in life …)?
The NEL was 1.48 mg/kg/day.

And the NEL (dog [6]; systemic / clinical chemistry / alkaline phosphatase (alp/alk) / alkaline phosphatase (alp/alk) + systemic / organ weight / thymus / …)?
Its NEL is 2 mg/kg/day.

What about the LOAEL (dog [6]; systemic / organ weight / liver / absolute + systemic / organ weight / liver / relative to body weight) of the same compound?
The LOAEL was 20 mg/kg/day.

What about the LEL (dog [6]; [20]) of the same compound?
The LEL was 20 mg/kg/day.

What about the NOAEL (dog [6]; [20]) of the same compound?
Its NOAEL is 2 mg/kg/day.

What about the NEL (dog [7]; [21]) of the same compound?
Its NEL is 5 mg/kg/day.

And the NOAEL (dog [7]; [21])?
The NOAEL was 5 mg/kg/day.

What about the LEL (dog [7]; [22]) of the same compound?
Its LEL is 20 mg/kg/day.

What about the LOAEL (dog [7]; [22]) of the same compound?
Its LOAEL is 20 mg/kg/day.

What about the NEL (mouse; systemic / pathology microscopic / liver / adenoma + systemic / pathology microscopic / liver / adenoma/carcinoma combined + systemic / in …) of the same compound?
The NEL was 225 mg/kg/day.

What about the LOAEL (mouse; systemic / pathology microscopic / liver / hypertrophy + systemic / pathology microscopic / liver / inflammation + systemic / pathology …) of the same compound?
The LOAEL was 225 mg/kg/day.

And the NOAEL (mouse; systemic / pathology microscopic / liver / hypertrophy + systemic / pathology microscopic / liver / necrosis + systemic / pathology …)?
Its NOAEL is 30 mg/kg/day.

What about the LEL (rat [8]; [23]) of the same compound?
The LEL was 25 mg/kg/day.

And the LOAEL (rat [8]; [23])?
Its LOAEL is 25 mg/kg/day.

What about the NEL (rat [8]; [23]) of the same compound?
The NEL was 5 mg/kg/day.

And the NOAEL (rat [8]; [23])?
The NOAEL was 5 mg/kg/day.

And the LEL (rat [8]; [17])?
The LEL was 25 mg/kg/day.

And the LOAEL (rat [8]; [17])?
The LOAEL was 25 mg/kg/day.

And the NEL (rat [8]; [17])?
Its NEL is 5 mg/kg/day.

What about the NOAEL (rat [8]; [17]) of the same compound?
Its NOAEL is 5 mg/kg/day.

And the LEL (rat [9]; [24])?
The LEL was 75 mg/kg/day.

What about the LOAEL (rat [9]; [24]) of the same compound?
Its LOAEL is 75 mg/kg/day.

What about the NEL (rat [9]; [24]) of the same compound?
Its NEL is 7.5 mg/kg/day.

What about the NOAEL (rat [9]; [24]) of the same compound?
Its NOAEL is 7.5 mg/kg/day.

And the LOAEL (rat [9]; [25])?
The LOAEL was 75 mg/kg/day.

And the NEL (rat [9]; [25])?
Its NEL is 0.75 mg/kg/day.

What about the NOAEL (rat [9]; [25]) of the same compound?
The NOAEL was 7.5 mg/kg/day.

And the LEL (rat [9]; group: parental, systemic / organ weight / liver / nos)?
Its LEL is 7.5 mg/kg/day.

And the LOAEL (rat [10]; [26])?
The LOAEL was 100 mg/kg/day.

And the NOAEL (rat [10]; [26])?
Its NOAEL is 10 mg/kg/day.

And the LEL (rat [10]; [27])?
The LEL was 3 mg/kg/day.

What about the NEL (rat [10]; [27]) of the same compound?
The NEL was less than 3 mg/kg/day.
